Experimental data reported in patent US4760062A, “Pharmaceutical compositions of N-heterocyclic benzenesulfonamides and their use” (DROPIC, Societe Civile de gestion de droits de Propriete …, priority 1983, dated 1988).
Like-named read-outs stand apart in the source and are kept apart here.

Legend:
mice [1] = test: 4 plates test (suppressive conditioning), 25 mg/kg orally, increase in punished passages with respect to control; assay type: in vivo, Swiss male mice; conditions: Mus musculus, po, 1 h, male mice, 25 mg/kg single oral dose, 60 minutes before the test; read-out: % increase in the number of punished passages with respect to the control batch
Source text: The method is based on the attenuation or suppression of the anxiety state induced by electric shocks on movement of the animals (mice) into a special enclosure.
The anxiolytic effect is manifested by an increase in movements at doses not affecting motility.
For each dose, the groups are of 15 animals which have not undergone the test.
The apparatus was of the Apelex type.
It is composed of a parallelepipedic box of white plastic material, provided with a lid of transparent plexiglas, mobile by means of two hinges. The floor, which is rectangular, is constituted by four plates of conductive metal of which the distance between one another and the walls of the box is of 0.5 cm.
These plates are connected to an Apelex impulse generator. The potential difference when there is no impulse is, nil between two plates on a diagonal and is of 180 Volts between two adjacent plates. A trigger enables that a constant electrical current pulse be sent (of 0 to 2 milliamperes) for a selected time (from 0.1 to 5 seconds).
The operation is carried out in a silent area at constant temperature, the experimenter overlooking the box so that he can follow all the movements of the mice placed on one of the plates.
For each animal, the experiment is carried out according to the following modalities:
preliminary exploration of 15 seconds, without electric shock;
punished exploration (electric shock for each movement between two ajdacent plates) for 60 seconds.
The electric shocks have a duration of 0.5 seconds and an intensity of 0.6 milliampere.
The controls receive only carboxymethylcellulose.
The results are expressed as percentage of increase in the number of punished passages with respect to the control batch (increase percentage).

mice [2] = test: Acute toxicity (LD0, LD50, LD100); conditions: for ratio between the effective dose and the toxicity: mouse, in vivo
[3] = Acute toxicity (LD0, LD50, LD100); conditions: mouse, in vivo
mice [4] = conditions: mouse, in vivo

`COc1cc(OC)c(S(=O)(=O)N2CCN(Cc3ccccc3)CC2)cc1S(C)(=O)=O` [Compound 1213] showed a change in vivo at 25 mg/kg (mice [1]) of 13%.
`COc1cc(OC)c(S(=O)(=O)N2CCNCC2)cc1OC` [Compound 1243] showed a change in vivo at 25 mg/kg (mice [1]) of 18%, an LD0 (mice [2]; mice, route IV) of 200 mg/kg and an LD100 (mice [2]; mice, route IV) of 325 mg/kg. For the same compound, the LD50 ([3]; iv) was 200 mg/kg and the “ratio between the effective dose and the toxicity” value (mice [4]) was “satisfactory”.
With `COc1ccc(Cl)cc1S(=O)(=O)N1CCN(Cc2ccccc2)CC1` [Compound 1245] the LD0 (mice [2]; mice, route IP) was > 2 000 mg/kg, the LD100 (mice [2]; mice, route IP) was > 2 000 mg/kg and the LD50 ([3]; ip) was greater than 2000 mg/kg. For the same compound, the “ratio between the effective dose and the toxicity” value (mice [4]) was “satisfactory”.
`COc1cc(OC)c(S(=O)(=O)N2CCN(C)CC2)cc1OC` [Compound 1260] gave a change in vivo at 25 mg/kg (mice [1]) of 31%.
With `COc1ccc(Cl)cc1S(=O)(=O)N1CCN(CCO)CC1` [Compound 1263] the change in vivo at 25 mg/kg (mice [1]) was 10%.
For `COc1cc([N+](=O)[O-])c(Cl)cc1S(=O)(=O)N1CCN(CCO)CC1` [Compound 1290], the change in vivo at 25 mg/kg (mice [1]) was 17%.
With `COc1cc([N+](=O)[O-])c(Cl)cc1S(=O)(=O)N1CCN(C)CC1` [Compound 1292] the LD0 (mice [2]; mice, route IP) was 400 mg/kg, the LD100 (mice [2]; mice, route IP) was 1 000 mg/kg and the “ratio between the effective dose and the toxicity” value (mice [2]) was “satisfactory”. For the same compound, the LD50 ([3]; ip) was 650 mg/kg.
`COc1cc(OC)c(S(=O)(=O)N2CCN(CCO)CC2)cc1S(C)(=O)=O` [Compound 1294] showed a change in vivo at 25 mg/kg (mice [1]) of 17%.
For `COc1cc(OC)c(S(=O)(=O)N2CCN(CC(O)CO)CC2)cc1Cl` (centres unmarked) [Compound 1295], the LD0 (mice [2]; mice, route IP) was 600 mg/kg, the LD100 (mice [2]; mice, route IP) was 1 000 mg/kg and the “ratio between the effective dose and the toxicity” value (mice [2]) was “satisfactory”. It also gave an LD50 ([3]; ip) of 820 mg/kg.
With `COc1cc(OC)c(S(=O)(=O)N2CCN(c3ccc(F)cc3)CC2)cc1S(C)(=O)=O` [Compound 1298] the LD0 (mice [2]; mice, route IP) was > 2 000 mg/kg, the LD100 (mice [2]; mice, route IP) was > 2 000 mg/kg and the LD50 ([3]; ip) was greater than 2000 mg/kg. For the same compound, the “ratio between the effective dose and the toxicity” value (mice [4]) was “satisfactory”.
Work on `COc1ccc(Br)cc1S(=O)(=O)N1CCN(c2ccc(F)cc2)CC1` [Compound 1299] yielded a change in vivo at 25 mg/kg (mice [1]) of 28%.
In the case of `O=C(c1ccccc1)N1CCCN(S(=O)(=O)c2ccc(Cl)c(C(F)(F)F)c2)CC1` [Compound 1393], the LD0 (mice [2]; by oral route) is reported as > 2 000 mg/kg and the “ratio between the effective dose and the toxicity” value (mice [4]) is reported as “satisfactory”.
For `O=S(=O)(c1cc(C(F)(F)F)cc(C(F)(F)F)c1)N1CCNCC1` [Compound 1400], the LD0 (mice [2]; route not given) was roughly 250 mg/kg, the LD50 [3] was roughly 700 mg/kg and the “ratio between the effective dose and the toxicity” value (mice [4]) was “satisfactory”.
With `O=C(c1ccco1)N1CCN(S(=O)(=O)c2ccc(Cl)c(C(F)(F)F)c2)CC1` [Compound 1402] the LD0 (mice [2]; by oral route) was > 2 000 mg/kg and the “ratio between the effective dose and the toxicity” value (mice [4]) was “satisfactory”.
With `O=C(c1ccco1)N1CCN(S(=O)(=O)c2cc(C(F)(F)F)cc(C(F)(F)F)c2)CC1` [Compound 1403] the change in vivo at 25 mg/kg (mice [1]) was 22%.
Work on `O=C(c1ccco1)N1CCCN(S(=O)(=O)c2ccc(Cl)c(C(F)(F)F)c2)CC1` [Compound 1405] yielded a change in vivo at 25 mg/kg (mice [1]) of 14%.
`O=C(N1CCN(S(=O)(=O)c2ccc(Cl)c(C(F)(F)F)c2)CC1)C12CC3CC(CC(C3)C1)C2` [Compound 1406] gave a change in vivo at 25 mg/kg (mice [1]) of 24%.
`O=S(=O)(c1cc(C(F)(F)F)cc(C(F)(F)F)c1)N1CCCNCC1` [Compound 1408] showed a change in vivo at 25 mg/kg (mice [1]) of 22%.
In the case of `COc1cc(N)c(Cl)cc1S(=O)(=O)N1CCN(C)CC1` [Compound 1427, 1'1-[(4-amino 5-chloro 2-methoxy)benzenesulfonyl]4-methyl piperazine], the LD0 (mice [2]; route not given) is reported as roughly 500 mg/kg, the LD50 [3] is reported as roughly 800 mg/kg and the “ratio between the effective dose and the toxicity” value (mice [4]) is reported as “satisfactory”.
Work on `O=S(=O)(c1cc(C(F)(F)F)cc(C(F)(F)F)c1)N1CCCN(CC(O)CO)CC1` (centres unmarked) [Compound 1488, 4-(2.3-dihydroxypropyl)1-[(3,5-ditrifluoromethyl)benzenesulfonyl]homopiperazine] yielded a change in vivo at 25 mg/kg (mice [1]) of 10%.
For `O=S(=O)(c1cccc(C(F)(F)F)c1)N1CCN(CCCO)CC1` [Compound 1500], the change in vivo at 25 mg/kg (mice [1]) was 25%.
For `O=C(c1ccccc1)N1CCN(S(=O)(=O)c2cccc(C(F)(F)F)c2)CC1` [Compound 1502], the change in vivo at 25 mg/kg (mice [1]) was 20%.
`O=C(N1CCN(S(=O)(=O)c2cccc(C(F)(F)F)c2)CC1)C12CC3CC(CC(C3)C1)C2` [Compound 1503] showed a change in vivo at 25 mg/kg (mice [1]) of 28%.
Work on `O=S(=O)(c1cccc(C(F)(F)F)c1)N1CCNCC1` [Compound 1504] yielded a change in vivo at 25 mg/kg (mice [1]) of 26%.
With `O=S(=O)(c1cccc(C(F)(F)F)c1)N1CCN(CCO)CC1` [Compound 1505] the change in vivo at 25 mg/kg (mice [1]) was 35%.
